# Key:
# [1] = tested on: B16F10 melanoma lung metastasis; assay: Mouse model of B16F10 lung metastasis; type: in vivo, C57BL/6 mice
# Description: To produce experimental metastasis model, male C57BL/6 mice (6 weeks old) were used. B16F10 cells ([…]/0.1 ml) were injected into the lateral tail vein of C57BL/6 mice, using a 30G1/2 needle and a 1-mL syringe. Mice were randomly divided into 3 groups of 6 mice each. Each mouse was given a daily intragastric injection of either 100 μl 15% ethanol solution as the vehicle control or 25 mg/kg DEA. Treatment was started 1 day before cell injection and was given every third day, lasted for consecutive 16 days Sixteen days after injection, the animals were weighed and killed. The lungs were removed, rinsed in PBS, and weighed. The lung weight index was calculated as the ratio of lung weight vs body weight. The harvested lungs were fixed in 4% formalin. Tumor foci on the surfaces of the lungs were counted under a stereomicroscope. Then, the whole lung was embedded in optimum cutting temperature compound (Sakura Finetek, SA), sectioned ([…], 5 levels), and stained with hematoxylin and eosin (H&E) according to routine protocols. […] The percentage of total area of the stained sections occupied by tumor was measured using the Panoramic viewer 1.15.4 (3[…], Hungary) Murine melanoma B16F10 cells were injected into the lateral tail vein of 6-weeks-old male C57BL/6 mice and divided into two groups (6 mice/group). […] Lungs were photographed (FIG. 9 A,B), weighted and lung weight index was calculated as the ratio of lung weight versus body weight of host mice, and was compared between the two groups. […] Metastatic nodules on lung surface were counted. […] 24 h after injection of melanoma B16F10 cells, mice in the control group were treated with vehicle (alcohol), mice in the treatment group were injected with desethylamiodarone (25 mg/kg, i.p., every 3rd day.) After 16 day's mice were sacrificed and then analyzed. […] Lung weight was determined and lung weight index was calculated (C). Tumor growth was monitored also by counting the tumor nodules (D). […] Lung tissue sections were analyzed histopathological after H & E staining. […]
# GSK-3β = assay: Western blot of GSK-3β phosphorylation; type: cell-based, human; settings: 5-10-15 μM, 6 hours; T24, B16F10 cell lines
# Description: 10^6 cells were seeded into regular plates and treated as for the cell viability assay. Cells were harvested at intervals in a chilled lysis buffer containing 0.5 mM sodium-metavanadate, 1 mM ethylenediaminetetraacetic acid (EDTA) and protease inhibitor cocktail in phosphate-buffered saline (PBS). Probes were boiled and subjected to 10% sodium dodecyl sulphate polyacrylamide gel electrophoresis then transferred to nitrocellulose membranes. The membranes were blocked in 5% low fat milk for 1.5 h at room temperature then exposed to primary antibodies at 4° C. overnight in blocking solution. Appropriate horseradish peroxidase-conjugated secondary antibodies were used at a 1:5000 dilution (anti-mouse and anti-rabbit IgGs; Sigma-Aldrich, Steinheim, Germany) and visualized by enhanced chemiluminescence (Amersham Biosciences, Piscataway, N.J., USA). All experiments were repeated 3 times.
# To determine the downstream consequences of DEA treatment, we examined the phosphorylation status of AKT (protein kinase B), GSK-3β and p42/44 mitogen-activated protein kinase (MAPK) (ERK1/2) by immunoblotting in T24 (human urinary bladder carcinoma), B16F10 (mice melanoma) cell lines. Cells were cultured in the presence of 5-10-15 μM DEA for 6 hours. The cells were prepared and western blot analysis was carried out to perform both phosphorylated and non-phosphorylated forms of the previously listed proteins. […]
# [2] = clinically relevant concentrations; cited from earlier work
# [3] = 25 mg/kg i.p. every 3rd day, day 16, B16F10 tail vein injection
smiles,measurement,setting,value
"CCCCc1oc2ccccc2c1C(=O)c1cc(I)c(OCCNCC)c(I)c1 [DEA, (2-butyl-3-benzofuranyl)[4-[2-(ethylamino)ethoxy]-3,5-diiodophenyl]-methanone]",Lung weight index (lung weight versus body weight),[1]; [3],significantly *P<0.001 inhibited lung weight increase
same,Number of tumor nodules on lung surface,[1]; [3],dramatically decrease in the number of tumor nodules
same,Percentage of tumor area over lung section area (H&E),"[1]; 25 mg/kg/3 days, n=6 per group",significantly decreased
same,GSK-3β phosphorylation,GSK-3β,decreased the phosphorylation of GSK-3β
same,Action potential duration (class III antiarrhythmic effect),[2],significantly increasing the action potential duration
same,Maximum rate of depolarization (class I antiarrhythmic effect),[2],decreasing the maximum rate of depolarization

# Reference: patent publication US9884040B2, “Desethylamiodarone for use in cancer treatment” (PÉCSI TUDOMÁNYEGYETEM, priority 2015, dated 2018)
